Values belong to the molecule of their own block, whether it stands above or below them.
Columns and labels:
ob/ob and db/db mice = settings: Mukherjee et al., Nature 1997; cited from earlier work
RXR/PPAR heterodimers = settings: Mukherjee et al., Nature 1997, 386, 407-410; WO 97/10819; cited from earlier work
RAR = settings: Heyman et al. Cell 1992, 68, 397-406; cited from earlier work

Compound: Cc1cc2c(cc1C1(c3ccc(C(=O)O)cn3)CC1)C(C)(C)CCC2(C)C [LG 100268]
glucose, insulin and triglyceride levels (ob/ob and db/db mice): reduction in glucose, insulin and triglyceride levels
activation of RXR/PPAR heterodimers (RXR/PPAR heterodimers): activate RXR/PPAR heterodimers

Compound: CC1=C(/C=C/C(C)=C\C=C\C(C)=C\C(=O)O)C(C)(C)CCC1 [9-cis retinoic acid]
activation of RAR (RAR): activates both RXR and RAR

melting point: 274.5 to 275.2 °C
Compound: Cc1cc2c(cc1C13CC1CCC3=Cc1ccc(C(=O)O)cc1)C(C)(C)CCC2(C)C (stereo not shown) [Example 1, 4-[1-(3,5,5,8,8-Pentamethyl-5,6,7,8-tetrahydro-naphthalen-2-yl)-bicyclo[3.1.0]hex-2-ylidenemethyl]-benzoic Acid]

Reference: patent US20010034448A1, “New compounds, their preparation and use” (priority 1998, published 2001)
